Consider 24 molecules from ChEMBL document CHEMBL1201862, “PubChem BioAssay data set” (2004).

Where a name gives a salt, the structure may show the parent alone.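 Exposure lasted 48 hours, with cells grown in 96-well plates and compounds tested at five concentrations. GI50 is the concentration that inhibits growth by half.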 Calls of active or inactive are those of the source. Rule as the data show it: active = GI50 up to about 1.1 µM and inactive = higher.

Among the test systems are Hs-578T; BT-549; HOP-18; RXF 631; DLD-1; M19-MEL; LXFL 529; XF498; DMS-273.
What all share (assay): NCI-60 cell line screen, 48 h

For `C1=C2C3=[N+](CCCCC3)CC2Cc2ccsc21` (stereo unspecified), the GI50 in the test with Hs-578T is > 100 µM (inactive); in the test on BT-549 it was 51.2 µM (inactive).
In the case of `CNCCC=C1c2ccccc2CCc2ccccc21` [NORTRIPTYLINE HYDROCHLORIDE], the GI50 is 19.6 µM (inactive) in the test on Hs-578T and 15.5 µM (inactive) with BT-549.
For `CCCc1c(-c2ccccc2)[nH]c2ccccc2c1=O`, the GI50 in the test with Hs-578T was > 100 µM (inactive); in the test with BT-549, 40.5 µM (inactive).
As to `C[C@]12CC[C@H]3[C@@H](CC=C4C[C@@H](O)CC[C@@]43C)[C@@H]1C/C(=C\c1ccc([N+](=O)[O-])cc1)[C@@H]2O`, the results for the GI50 in the test with Hs-578T and in the test on BT-549 were 16.9 µM (inactive) and 14.6 µM (inactive), respectively.
In the case of `CC1=N/C(=C\c2ccc([N+](=O)[O-])cc2)C(=O)O1`, the GI50 with HOP-18, in the test with RXF 631, in the test on DLD-1, with M19-MEL and in the test with LXFL 529 was > 100 µM (inactive) throughout.
In the case of `CCOc1ccccc1NC(=O)C1=C(C)NC(C)=C(C(=O)Nc2ccccc2OCC)C1c1ccc(NC(C)=O)cc1`, the GI50 in the test on DLD-1 is 37 µM (inactive); in the test with M19-MEL, 28.2 µM (inactive); with XF498 it was 9.68 µM (inactive); in the test on LXFL 529 it was 47.6 µM (inactive).
As to `c1ccc(Nc2nnc(-c3nsc4ccccc34)o2)cc1`, the GI50 in the test on HOP-18 was > 100 µM (inactive); with M19-MEL, > 100 µM (inactive); in the test on DMS-273, 46.6 µM (inactive); with LXFL 529, 85.5 µM (inactive).
On to `NC1c2ccccc2Nc2ccccc21`, for which the GI50 in the test with HOP-18 is 8.81 µM (inactive); with DLD-1 it was 3.8 µM (inactive); in the test on M19-MEL, 3.36 µM (inactive); with XF498 it was 3.16 µM (inactive); with DMS-273, 4.52 µM (inactive); in the test on LXFL 529, 4.94 µM (inactive).
`CC(C)(CCCCC(C)(C)C1NC(=O)N1)C1NC(=O)N1`: the GI50 in the test on Hs-578T was > 10 µM (inactive).
As for `CCCCn1cc[n+](-c2nc3ccccc3n2C)c1`, the GI50 with HOP-18, in the test on RXF 631, in the test on DLD-1, in the test on DMS-273 and in the test on LXFL 529 was > 100 µM (inactive) in each case.
With `COc1cc2c(cc1OC)C1Cc3cc(OC)c(OC)cc3C(C2)O1`, the GI50 in the test on BT-549 was > 100 µM (inactive).
For the molecule `CSCSCC(CO)NC(=O)/C(C)=C\c1c(C)[nH]c(=O)[nH]c1=O` (stereo unspecified), the GI50 was > 250 µM (inactive) in the test with HOP-18; > 250 µM (inactive) with DLD-1; > 250 µM (inactive) in the test with M19-MEL; > 64.6 µM (inactive) with XF498; > 250 µM (inactive) in the test with DMS-273.
As for `COC1=C(OC)C(=O)c2cc(SC)c(=O)c(SC)cc2C1=O`, the GI50 was 20.2 µM (inactive) in the test on HOP-18; 28.4 µM (inactive) in the test on DLD-1; 5.14 µM (inactive) in the test with XF498; 25.5 µM (inactive) in the test with DMS-273; 15.8 µM (inactive) in the test with LXFL 529.
Take `CCOC(=O)C1=C(c2ccccc2)N(C(C)=O)Cc2ccccc21`: the GI50 with HOP-18 is 28.1 µM (inactive); with DLD-1, 28.7 µM (inactive); in the test on M19-MEL, 18.8 µM (inactive); with XF498, 11.9 µM (inactive); with DMS-273 it was 15.1 µM (inactive); in the test with LXFL 529 it was 22.5 µM (inactive).
Turning to `COc1ccc(/C=C2/C(=O)N(C(=O)c3ccccc3O)N=C2C)cc1`, the GI50 in the test with BT-549 is 0.105 µM (active); in the test with DLD-1 it was 0.0828 µM (active); in the test on M19-MEL, 0.542 µM (active); in the test on XF498, 0.3 µM (active); with LXFL 529 it was 0.205 µM (active).
`Cc1cc(C)c(NC(=O)/C=C/c2ccccc2)c(C)c1`: the GI50 was 57.7 µM (inactive) in the test on Hs-578T and > 100 µM (inactive) in the test on BT-549.
As to `CC(=O)Oc1ccc(C2COc3cc(OC(C)=O)c(OC(C)=O)cc3C2)cc1` (stereo unspecified), the GI50 with HOP-18 was 12.8 µM (inactive); in the test with DLD-1 it was 17.9 µM (inactive); with M19-MEL, 12.9 µM (inactive); with XF498 it was 12.2 µM (inactive); in the test on DMS-273 it was 21.9 µM (inactive).
Consider `CC[C@@H]1CN2CCC1C[C@@H]2C(O)c1ccnc2ccc(OCCN3CCN(CCOc4ccc5nccc(C(O)[C@@H]6C[C@@H]7CCN6C[C@@H]7CC)c5c4)CC3)cc12` (stereo partly specified), for which the GI50 in the test on Hs-578T is 15.3 µM (inactive); with BT-549 it was 19.1 µM (inactive).
`CC(C)OP(=O)(OC(C)C)c1ncn(-c2ccc([N+](=O)[O-])cc2)n1`: the GI50 with DLD-1, in the test with M19-MEL, in the test on XF498, in the test on DMS-273 and in the test with LXFL 529 was > 100 µM (inactive) throughout.
Regarding `O=C(O)CCCCn1ccc(=O)[nH]c1=O`, the GI50 in the test with Hs-578T and with BT-549 was > 100 µM (inactive) throughout.
`C/C(=C\c1ccccc1)C(=O)CCN1CCOCC1`: the GI50 with HOP-18 is 18.3 µM (inactive); in the test on DLD-1, 17.3 µM (inactive); in the test on M19-MEL, 17.2 µM (inactive); with XF498, 18.3 µM (inactive); in the test with DMS-273, 19.7 µM (inactive).
Turning to `O=C(N[C@H]1c2ccsc2/C(=N/O)[C@H]1O)C(F)(F)F`, the GI50 in the test on Hs-578T and in the test on BT-549 was > 100 µM (inactive) in each case.
With `C=CC1(c2ccc3ccccc3c2)OCC(CC)O1` (stereo unspecified), the GI50 in the test with Hs-578T was 22.4 µM (inactive).
With `COc1cc2c(cc1OC)[C@@H]1[C@H](C#N)C(=O)C(C)(C)N1CC2`, the GI50 with Hs-578T and with BT-549 was > 100 µM (inactive) throughout.
